The values that follow come from publication PMC10825133, “Repurposing proteasome inhibitors for improved treatment of triple-negative breast cancer” (Cell Death Discovery, 2024).

Where two headings read alike, the source gives them in different places.

Assay in all cases: Resazurin-based cell viability assay, monotherapy drug screen
For orientation: Alamar Blue is a resazurin reagent that responds to reducing activity.

In test [1] the test system is CAL-148 cells. The arrangement: species or system human; AUC: unit not given beside the values. Particulars: CAL-148.
The subject of test [2] is MDA-MB-436 cells. The arrangement: species or system human; AUC: scale not given here. The following applies: MDA-MB-436. In outline:
(§1)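 Cells were seeded at the highest density (tested 1000-16000 cells/well) giving linear growth between days 1 and 3, keeping them in exponential phase over the ~52 h experiment. Viability was read after 4 h at 37 °C with 0.2 mg/ml resazurin added at 10% of medium volume; ex 560/em 615 nm.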

The test system of test [3] is HCC70 cells. Further details: species or system human; AUC: scale not given here. Particulars: HCC70. In a few lines: as §1
Test [4] has as its system MDA-MB-468 cells. The arrangement: species or system human; AUC: scale not given here. Particulars: MDA-MB-468. In outline: as §1
Test [5] relates to BT-549 cells. The arrangement: species or system human; AUC: scale not given here. Particulars: BT-549. In a few lines: as §1
In test [6] the test system is MDA-MB-453 cells. The arrangement: species or system human; AUC: scale not given here. The following applies: MDA-MB-453; area under the dose response curve, 24 h. In a few lines:
as §1

The subject of test [7] is HCC1806 cells. Further details: species or system human; AUC: scale not given here. The following applies: HCC1806. In outline:
as §1

Test [8] relates to HCC38 cells. The arrangement: species or system human; AUC: scale not given here. The following applies: HCC38; for IC50: Homo sapiens. In a few lines: as §1
In test [9] the test system is MCF-10A cells. Further details: species or system human; AUC: scale not given here. The following applies: for IC50: Homo sapiens. In outline:
as §1

The mark [10] stands for this setting: area under the dose response curve, 24 h.
Setting [11] is: drug efficacy at highest tested dose (<0 cytotoxic, 0 cytostatic, >0 partial growth inhibition).
Where [12] appears, read: Homo sapiens, growth rate inhibition concentration at GR(c) = 0.5, 24 h, read-out: GR50 (the source's name).
[13] abbreviates: 24 h drug treatment, read-out: IC50.
The mark [14] stands for this setting: growth rate inhibition concentration at GR(c) = 0.5, 24 h, read-out: GR50 (the source's name).

Regarding `CC(=O)O[C@H]1C(=O)[C@@]2(C)[C@H]([C@H](OC(=O)c3ccccc3)[C@]3(O)C[C@H](OC(=O)[C@H](O)[C@@H](NC(=O)c4ccccc4)c4ccccc4)C(C)=C1C3(C)C)[C@]1(OC(C)=O)CO[C@@H]1C[C@@H]2O` [Paclitaxel], the AUC in [1] (setting [10]) was 0.92; in test [2] (setting [10]), 0.78; in test [3] (setting [10]), 0.86; in test [4] (setting [10]), 0.81; in test [5] (setting [10]), 0.87; in test [6], 0.93. In addition, the values for the AUC in [7] (setting [10]), in test [8] (setting [10]) and in test [9] (setting [10]) were 0.72, 0.81 and 0.73, respectively. Besides, the GRmax was 0.51 in [1] (setting [11]); −0.97 in test [2] (setting [11]); 0.46 in [3] (setting [11]); 0.58 in test [5] (setting [11]); 0.51 in [7] (setting [11]); −0.50 in [8] (setting [11]). Besides, the IC50 in test [1] (setting [12]) was 1100 nM; in [2] (setting [12]), 55 nM; in [3] (setting [12]), 380 nM; in test [4] (setting [12]), 1400 nM; in [7] (setting [12]), 840 nM; in test [8] (setting [13]) it was 7100 nM. For the same compound, the results for the IC50 in [8] (setting [14]), in test [9] (setting [13]) and in [9] (setting [14]) were 110 nM, 860 nM and 98 nM, respectively.
